Data taken from ChEMBL document CHEMBL1156544, “Bioactive brominated metabolites from the red sea sponge Suberea mollis” (2008).
Calls of active or inactive are those of the source. The calls are words filed in the database; no cut-off is given here.

What was measured:
Klebsiella pneumoniae [1] = assay: Antibacterial activity against Klebsiella pneumoniae ATCC 10032 assessed as inhibition zone diameter after 24 hrs by agar diffusion method; type: functional
Pseudomonas aeruginosa [2] = assay: Antibacterial activity against Pseudomonas aeruginosa ATCC 9027 assessed as inhibition zone diameter after 24 hrs by agar diffusion method; type: functional
Staphylococcus aureus [3] = assay: Antibacterial activity against Staphylococcus aureus ATCC 6538P assessed as inhibition zone diameter after 24 hrs by agar diffusion method; type: functional
[4] = test system: Radical scavenging activity; assay: Antioxidant activity assessed as DPPH radical scavenging activity at 6 ug; type: functional
Pseudomonas aeruginosa [5] = assay: Antibacterial activity against Pseudomonas aeruginosa ATCC 9027 assessed as inhibition zone diameter at 30 ug/disk after 24 hrs by agar diffusion method; type: functional; conditions: ATCC 9027, 24 h, read-out: IZ
Klebsiella pneumoniae [6] = assay: Antibacterial activity against Klebsiella pneumoniae ATCC 10032 assessed as inhibition zone diameter at 30 ug/disk after 24 hrs by agar diffusion method; type: functional; conditions: ATCC 10032, 24 h, read-out: IZ
Staphylococcus aureus [7] = assay: Antibacterial activity against Staphylococcus aureus ATCC 6538P assessed as inhibition zone diameter at 30 ug/disk after 24 hrs by agar diffusion method; type: functional; conditions: read-out: IZ
Klebsiella pneumoniae [8] = assay: microbe, parasite or virus in culture; conditions: ATCC 10032, 24 h, read-out: IZ
Description: Antibacterial activity against Klebsiella pneumoniae ATCC 10032 assessed as inhibition zone diameter at 5 ug/disk after 24 hrs by agar diffusion method

Pseudomonas aeruginosa [9] = assay: microbe, parasite or virus in culture; conditions: ATCC 9027, 24 h, read-out: IZ
Description: Antibacterial activity against Pseudomonas aeruginosa ATCC 9027 assessed as inhibition zone diameter at 5 ug/disk after 24 hrs by agar diffusion method

Staphylococcus aureus [10] = assay: Antibacterial activity against Staphylococcus aureus ATCC 6538P assessed as inhibition zone diameter at 5 ug/disk after 24 hrs by agar diffusion method; type: functional, organism-based
Pseudomonas aeruginosa [11] = assay: Antibacterial activity against Pseudomonas aeruginosa ATCC 9027 assessed as inhibition zone diameter at 15 ug/disk after 24 hrs by agar diffusion method; type: functional, organism-based
Klebsiella pneumoniae [12] = assay: Antibacterial activity against Klebsiella pneumoniae ATCC 10032 assessed as inhibition zone diameter at 15 ug/disk after 24 hrs by agar diffusion method; type: functional, organism-based
Staphylococcus aureus [13] = assay: Antibacterial activity against Staphylococcus aureus ATCC 6538P assessed as inhibition zone diameter at 15 ug/disk after 24 hrs by agar diffusion method; type: functional; conditions: read-out: IZ

`COC1=C(Br)[C@H](O)[C@](O)(CC#N)C=C1Br` was tested, and the “inhibition zone (IZ)” value (Klebsiella pneumoniae [1]) was 7 mm, the “inhibition zone (IZ)” value (Pseudomonas aeruginosa [2]) was 11 mm and the “inhibition zone (IZ)” value (Staphylococcus aureus [3]) was 9 mm.
`COC1=C(Br)[C@@H]2OC(=O)C[C@]2(O)C=C1Br` was tested, and the Activity (Klebsiella pneumoniae [1]) was “inactive”, the Activity (Pseudomonas aeruginosa [2]) was “inactive” and the “inhibition zone (IZ)” value (Staphylococcus aureus [3]) was 5 mm.
In the case of `CCOC(=O)Cc1cc(Br)c(O)c(Br)c1O`, the Activity [4] is reported as “Active”.
With `COC1=C(Br)[C@H](O)[C@@]2(C=C1Br)CC(C(=O)NCCCOc1c(Br)cc(CCNC(=O)C3=NO[C@]4(C=C(Br)C(OC)=C(Br)[C@@H]4O)C3)cc1Br)=NO2` the Activity (Klebsiella pneumoniae [1]) was “inactive”, the Activity (Pseudomonas aeruginosa [2]) was “inactive” and the Activity (Staphylococcus aureus [3]) was “inactive”.
For `COC1=C(Br)[C@H](O)[C@@]2(C=C1Br)CC(C(=O)NCCCCNC(=O)C1=NO[C@]3(C=C(Br)C(OC)=C(Br)[C@@H]3O)C1)=NO2` [AEROTHIONIN], the “inhibition zone (IZ)” value (Klebsiella pneumoniae [1]) was 3 mm, the Activity (Pseudomonas aeruginosa [2]) was “inactive” and the “inhibition zone (IZ)” value (Staphylococcus aureus [3]) was 5 mm.
In the case of `O=C(N[C@H](CO)[C@H](O)c1ccc([N+](=O)[O-])cc1)C(Cl)Cl` [CHLORAMPHENICOL], the zone of inhibition at 30 µg/disc (Pseudomonas aeruginosa [5]) is reported as 7 mm, the zone of inhibition at 30 µg/disc (Klebsiella pneumoniae [6]) is reported as 10 mm and the zone of inhibition at 30 µg/disc (Staphylococcus aureus [7]) is reported as 9 mm.
With `O=C(O)c1cn(C2CC2)c2cc(N3CCNCC3)c(F)cc2c1=O` [CIPROFLOXACIN] the zone of inhibition at 5 µg/disc (Klebsiella pneumoniae [8]) was 8 mm, the zone of inhibition at 5 µg/disc (Pseudomonas aeruginosa [9]) was 2 mm and the Activity (Staphylococcus aureus [10]) was “inactive”.
In the case of `CC[C@H]1OC(=O)[C@H](C)[C@@H](O[C@H]2C[C@@](C)(OC)[C@@H](O)[C@H](C)O2)[C@H](C)[C@@H](O[C@@H]2O[C@H](C)C[C@H](N(C)C)[C@H]2O)[C@](C)(O)C[C@@H](C)C(=O)[C@H](C)[C@@H](O)[C@]1(C)O` [ERYTHROMYCIN], the Activity (Pseudomonas aeruginosa [11]) is reported as “inactive”, the Activity (Klebsiella pneumoniae [12]) is reported as “inactive” and the zone of inhibition at 15 µg/disc (Staphylococcus aureus [13]) is reported as 8 mm.
With `COC1=C(Br)[C@H](O)[C@@]2(C=C1Br)CC(C(=O)NCCCCCNC(=O)C1=NO[C@]3(C=C(Br)C(OC)=C(Br)[C@@H]3O)C1)=NO2` [HOMOAEROTHIONIN] the Activity (Klebsiella pneumoniae [1]) was “inactive”, the Activity (Pseudomonas aeruginosa [2]) was “inactive” and the “inhibition zone (IZ)” value (Staphylococcus aureus [3]) was 3 mm.
With `CCOC(=O)NCCCCNC(=O)C1=NO[C@]2(C=C(Br)C(OC)=C(Br)[C@@H]2O)C1` [SUBEREAMOLLINE A] the Activity (Klebsiella pneumoniae [1]) was “inactive”, the Activity (Pseudomonas aeruginosa [2]) was “inactive” and the “inhibition zone (IZ)” value (Staphylococcus aureus [3]) was 3 mm.
`COC(=O)Cc1cc(Br)c(O)c(Br)c1O` [SUBEREAPHENOL B] was tested, and the Activity (Klebsiella pneumoniae [1]) was “inactive”, the Activity (Pseudomonas aeruginosa [2]) was “inactive” and the “inhibition zone (IZ)” value (Staphylococcus aureus [3]) was 5 mm. For the same compound, the Activity [4] was “Active”.
